# Results published in ChEMBL document CHEMBL6103561, “Chemical dissection of selective myeloid leukemia-1 inhibitors: How they were found and evolved” (Eur J Med Chem, 2025).
# Assays:
# Bcl-2-like protein 1 [1] = target: T1, Bcl-2-like protein 1 (Homo sapiens, UniProt Q07817); assay: Binding affinity to Bcl-XL (unknown origin) assessed as inhibition constant by fluorescence polarization assay
# [2] = target: T2, Apoptosis regulator Bcl-2 (Homo sapiens, UniProt P10415)
# Description: Binding affinity to BCL-2 (unknown origin) as assessed as inhibition constant
# [3] = target: T3, Induced myeloid leukemia cell differentiation protein Mcl-1 (Homo sapiens, UniProt Q07820)
# Description: Binding affinity to MCL-1 (unknown origin) assessed as inhibition constant
# HL-60 [4] = assay: Growth inhibition of human HL-60 cells
# [5] = Antiproliferative activity against human BL-2 cells; details: BL2
# [6] = target: T3, Induced myeloid leukemia cell differentiation protein Mcl-1; remark: listed apart in the source
# Description: Binding affinity to MCL-1 (unknown origin) assessed as inhibition constant by fluorescence polarization assay
# [7] = target: Voltage-gated inwardly rectifying potassium channel KCNH2 (Homo sapiens, UniProt Q12809)
# [8] = target: T3, Induced myeloid leukemia cell differentiation protein Mcl-1; remark: listed apart in the source
# [9] = target: T3, Induced myeloid leukemia cell differentiation protein Mcl-1; remark: listed apart in the source
# Bcl-2-like protein 1 [10] = target: T1, Bcl-2-like protein 1; assay: Binding affinity to BCL-XL (unknown origin) assessed as inhibition constant
# MV4-11 [11] = assay: Antiproliferative activity against human MV4-11 cells assessed as reduction in cell viability
# OPM-2 = assay: Antiproliferative activity against human OPM-2 cells
# NCI-H929 [12] = assay: Growth inhibition of human NCI-H929 cells
# [13] = Clearance in mouse at 1 mg/kg, iv; details: in vivo
# [14] = target: T3, Induced myeloid leukemia cell differentiation protein Mcl-1; remark: listed apart in the source
# Description: Binding affinity to MCL-1 (unknown origin) assessed as inhibition constant by TR-FRET assay
# in vivo = details: mouse
# Bcl-2-like protein 1 [15] = target: T1, Bcl-2-like protein 1
# Bcl-2-like protein 1 [16] = target: T1, Bcl-2-like protein 1; assay: Binding affinity to BCL-XL (unknown origin) assessed as inhibition constant incubated for 60 mins by TR-FRET assay
# [17] = Solubility of compound in water at pH 7 measured after 24 hrs by HPLC analysis
# MV4-11 [18] = assay: Antiproliferative activity against human MV4-11 cells
# [19] = target: T2, Apoptosis regulator Bcl-2; assay: Binding affinity to BCL-2 (unknown origin) assessed as inhibition constant incubated for 60 mins by TR-FRET assay
# Bcl-2-like protein 1 [20] = target: T1, Bcl-2-like protein 1; remark: listed apart in the source
# Description: Inhibition of Bcl-XL (unknown origin) by FRET assay
# [21] = target: T3, Induced myeloid leukemia cell differentiation protein Mcl-1; remark: listed apart in the source
# Description: Inhibition of MCL-1 (unknown origin)
# NCI-H929 [22] = assay: Antiproliferative activity against human NCI-H929 cells assessed as reduction in cell viability
# [23] = target: T3, Induced myeloid leukemia cell differentiation protein Mcl-1; remark: listed apart in the source
# Description: Inhibition of N-terminal GST-tagged human MCL-1 (1 to 23 residues) extracted from Escherichia coli BL21 (DE3) by TR-FRET assay
# [24] = target: T3, Induced myeloid leukemia cell differentiation protein Mcl-1; assay: Binding affinity to N-terminal MCL-1 (unknown origin) using 5-FAM peptide as substrate by fluorescence polarization assay
# HL-60 [25] = assay: Cytotoxicity against human HL-60 cells assessed as reduction in cell viability incubated for 48 hrs by CCK-8 assay; details: HL-60, 48 h
# MOLP-8 = assay: Antiproliferative activity against human MOLP8 cells
# [26] = target: T2, Apoptosis regulator Bcl-2; remark: listed apart in the source
# Description: Inhibition of Bcl-2 (unknown origin) by fluorescence polarization assay
# T1 sequence (Q07817 whole entry): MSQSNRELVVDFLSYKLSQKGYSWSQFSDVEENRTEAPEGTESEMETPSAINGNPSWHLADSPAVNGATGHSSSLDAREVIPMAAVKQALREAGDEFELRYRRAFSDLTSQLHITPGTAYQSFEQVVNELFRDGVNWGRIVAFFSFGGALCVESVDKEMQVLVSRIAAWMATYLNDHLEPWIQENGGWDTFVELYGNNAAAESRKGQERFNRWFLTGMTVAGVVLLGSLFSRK
# Voltage-gated inwardly rectifying potassium channel KCNH2, sequence (Q12809 whole entry): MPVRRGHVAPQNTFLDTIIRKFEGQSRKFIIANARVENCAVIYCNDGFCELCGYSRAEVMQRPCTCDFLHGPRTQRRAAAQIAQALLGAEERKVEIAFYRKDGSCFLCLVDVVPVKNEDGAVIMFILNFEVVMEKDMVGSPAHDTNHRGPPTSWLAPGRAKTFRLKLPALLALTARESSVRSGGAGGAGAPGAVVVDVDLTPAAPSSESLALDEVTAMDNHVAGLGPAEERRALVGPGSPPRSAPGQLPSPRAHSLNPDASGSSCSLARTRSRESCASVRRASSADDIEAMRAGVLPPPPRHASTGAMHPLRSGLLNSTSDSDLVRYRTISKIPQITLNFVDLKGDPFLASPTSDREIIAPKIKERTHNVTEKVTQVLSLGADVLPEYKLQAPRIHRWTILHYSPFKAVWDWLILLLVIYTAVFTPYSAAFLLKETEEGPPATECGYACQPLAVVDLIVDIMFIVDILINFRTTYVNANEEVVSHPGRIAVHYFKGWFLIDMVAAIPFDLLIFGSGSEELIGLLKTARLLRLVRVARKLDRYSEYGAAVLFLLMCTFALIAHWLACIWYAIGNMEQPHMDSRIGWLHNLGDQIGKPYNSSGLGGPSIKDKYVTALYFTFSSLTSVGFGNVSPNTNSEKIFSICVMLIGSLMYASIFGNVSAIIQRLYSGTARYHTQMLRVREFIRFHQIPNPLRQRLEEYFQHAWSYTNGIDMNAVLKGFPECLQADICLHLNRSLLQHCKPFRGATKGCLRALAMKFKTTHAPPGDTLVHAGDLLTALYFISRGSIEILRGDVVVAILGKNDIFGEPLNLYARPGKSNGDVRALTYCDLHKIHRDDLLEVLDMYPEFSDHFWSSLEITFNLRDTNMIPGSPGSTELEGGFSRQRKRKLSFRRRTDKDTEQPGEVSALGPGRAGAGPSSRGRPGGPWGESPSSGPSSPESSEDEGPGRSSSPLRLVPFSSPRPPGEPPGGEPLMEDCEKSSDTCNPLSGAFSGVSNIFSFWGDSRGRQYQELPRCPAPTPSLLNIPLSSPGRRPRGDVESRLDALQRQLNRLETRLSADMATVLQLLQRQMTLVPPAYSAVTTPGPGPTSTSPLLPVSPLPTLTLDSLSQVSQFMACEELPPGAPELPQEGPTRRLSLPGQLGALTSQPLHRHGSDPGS
# T3 sequence (Q07820 whole entry): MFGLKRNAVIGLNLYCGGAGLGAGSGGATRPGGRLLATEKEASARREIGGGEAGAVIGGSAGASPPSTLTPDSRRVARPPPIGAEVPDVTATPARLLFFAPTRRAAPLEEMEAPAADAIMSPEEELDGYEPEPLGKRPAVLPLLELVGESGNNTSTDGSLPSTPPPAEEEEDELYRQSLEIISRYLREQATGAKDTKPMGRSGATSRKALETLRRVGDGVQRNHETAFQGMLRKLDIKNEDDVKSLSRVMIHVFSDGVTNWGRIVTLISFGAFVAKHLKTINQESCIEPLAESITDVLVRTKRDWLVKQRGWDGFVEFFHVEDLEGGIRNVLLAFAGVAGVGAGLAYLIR
# T2 sequence (P10415 whole entry): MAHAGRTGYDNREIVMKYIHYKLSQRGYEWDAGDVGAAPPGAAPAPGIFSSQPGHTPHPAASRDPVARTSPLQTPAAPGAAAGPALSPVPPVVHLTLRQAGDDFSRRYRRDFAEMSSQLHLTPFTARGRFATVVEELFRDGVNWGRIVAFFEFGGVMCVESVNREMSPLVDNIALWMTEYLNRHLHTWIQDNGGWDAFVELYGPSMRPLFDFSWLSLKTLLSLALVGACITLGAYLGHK
smiles,measurement,setting,value
COC1=CC(c2cc3ccccc3[nH]2)=N/C1=C\c1[nH]c(C)cc1C [OBATOCLAX],Ki,Bcl-2-like protein 1 [1],> 1000 nM
same,Ki,[2],200 nM
same,Ki,[3],> 1000 nM
CC(=O)N1CCN(c2ccc(OCc3cccc(-c4ccc5c(-c6cccc(C(F)(F)F)c6)cn(CCC(=O)O)c5c4)c3)cc2)CC1,GI50,HL-60 [4],3150 nM
same,Ki,[3],370 nM
CC1(C)CC[C@@H](OC(=O)/C=C/c2ccccc2)[C@]2(C)C(C=O)C(C=O)=C[C@H](O)[C@@]12C (some centres not stated),IC50,[5],4000 nM
same,Ki,[6],300 nM
same,IC50,[7],> 10000 nM
CC(C)CN1C[C@@H](c2ccc(Cl)cc2Cl)Oc2ccc(C(=O)O)cc21,IC50,[8],55000 nM
O=S(=O)(Nc1cc(Sc2ccco2)c(O)c2ccccc12)c1cccs1,Ki,[3],> 100000 nM
Cc1c(-c2cccc3c(CCCOc4cccc5ccccc45)c(C(=O)O)n(C)c23)c(COc2ccc(S(=O)(=O)F)cc2)nn1C,IC50,[9],4200 nM
Cc1c(-c2cccc3c(CCCOc4cccc5ccccc45)c(C(=O)O)n(C)c23)c(COc2ccccc2)nn1C,IC50,[9],4200 nM
COc1ccccc1-c1nccc(COc2ccc3cc2C[C@H](C(=O)O)Oc2ncnc4sc(-c5ccc(F)cc5)c(c24)-c2ccc(c(Cl)c2C)CN(CCN2CCN(C)CC2)CO3)n1,Ki,Bcl-2-like protein 1 [10],> 660 nM
same,Ki,[2],> 1200 nM
same,Ki,[3],5.54 nM
CO[C@@]1(CN2CCN3CCCC[C@@H]3C2)/C=C/C[C@H](C)[C@@H](C)S(=O)(=O)NC(=O)c2ccc3c(c2)N(C[C@@H]2CC[C@H]21)C[C@@]1(CCCc2cc(Cl)ccc21)CO3,IC50,MV4-11 [11],150 nM
same,IC50,OPM-2,50 nM
Cc1cc(Cl)cc(C)c1OCCCc1c2n(c3c(-c4c(C)nn(C)c4C)c(Cl)ccc13)CCCN(c1cn(C)c3ccc(C(=O)O)cc13)C2=O,GI50,NCI-H929 [12],300 nM
same,clearance,[13],245 mL/min/kg
same,Ki,[14],< 0.1 nM
same,half-life,in vivo,34.2 min
Cc1cc(Cl)cc(C)c1OCCCc1c2n(c3c(-c4c(C)nn(C)c4C)c(Cl)ccc13)[C@H](C)CCN(c1cn(C)c3ccc(C(=O)O)cc13)C2=O,GI50,NCI-H929 [12],190 nM
same,Ki,[14],0.097 nM
Cc1ccc(S(=O)(=O)/N=C2/C=C(Sc3nc[nH]n3)C(=O)c3ccccc32)cc1,IC50,[9],14 nM
O=C(O)CSc1ccc(C(=O)c2[nH]c(Cl)c(Cl)c2-n2c(C(=O)c3ccc(SCC(=O)O)cc3O)cc(Cl)c2Cl)c(O)c1,IC50,Bcl-2-like protein 1 [15],> 100000 nM
COCCOCc1nn(C)c2c1CSCc1cc(n(C)n1)CSc1cc(c3ccc(F)cc3c1)OCCCc1c(C(=O)O)n(C)c3c-2c(Cl)ccc13,Ki,Bcl-2-like protein 1 [16],0.018 nM
same,solubility at 24 h,[17],580 µM
same,IC50,[7],> 30000 nM
Cc1cc(OCCCn2cc(-c3cccc(C(F)(F)F)c3)c3cc(C(=O)O)ccc32)cc(C)c1Cl,Ki,[2],560 nM
same,Ki,[3],400 nM
CCOP(=O)(OCC)c1ccc(C(=O)c2[nH]c(Cl)c(Cl)c2-n2c(C(=O)c3ccc(P(=O)(OCC)OCC)cc3O)cc(Cl)c2Cl)c(O)c1,IC50,Bcl-2-like protein 1 [15],> 100000 nM
Cc1c(-c2cccc3c(CCCOc4cccc5ccccc45)c(C(=O)O)n(C)c23)c(COc2ccc(B(O)O)c(C=O)c2)nn1C,IC50,[9],4200 nM
Cc1cc(OCCCn2ccc3cc(C(=O)O)ccc32)cc(C)c1Cl,Ki,[2],12900 nM
same,Ki,[3],8850 nM
Cc1nn(C)c(COc2ccc(N3CCN(S(=O)(=O)N(C)C)CC3)cc2)c1-c1cccc2c(CCCOc3cccc4ccccc34)c(C(=O)O)n(CCN3CCOCC3)c12,EC50,MV4-11 [18],1860 nM
same,Ki,[19],132 nM
same,Ki,Bcl-2-like protein 1 [16],> 660 nM
COCCOCn1nc(C)c2c1CSCc1cc(n(C)n1)CCc1cc(c3ccc(F)cc3c1)OCCCn1c(C(=O)O)c(C)c3c-2c(Cl)ccc31,Ki,Bcl-2-like protein 1 [16],0.015 nM
same,solubility at 24 h,[17],3140 µM
same,IC50,[7],> 30000 nM
Cc1cc(S(=O)(=O)NC(=O)c2cc(C)c(-c3cccc4c(CCCOc5cccc6ccccc56)c(C(=O)O)nn34)c(C)c2)ccc1N[C@H](CCN(C)C)CSc1ccccc1,IC50,Bcl-2-like protein 1 [20],3 nM
same,IC50,[21],8 nM
COc1ccccc1-c1nccc(COc2ccccc2C[C@@H](Oc2ncnc3sc(-c4ccc(F)cc4)c(-c4ccc(OCCN5CCN(C)CC5)c(Cl)c4C)c23)C(=O)O)n1,IC50,NCI-H929 [22],1 nM
CO[C@H]1/C(F)=C/C[C@H](C)[C@@H](C)S(=O)(=O)NC(=O)c2ccc3c(c2)N(C[C@@H]2CCO[C@H]21)C[C@@]1(CCCc2cc(Cl)ccc21)CO3,solubility at 24 h,[17],8.3 µM
same,IC50,OPM-2,191 nM
CO[C@H]1/C=C/C[C@H](C)[C@@H](C)S(=O)(=O)NC(=O)c2ccc3c(c2)N(C[C@@H]2CCO[C@H]21)C[C@@]1(CCCc2cc(Cl)ccc21)CO3,solubility at 24 h,[17],< 0.1 µM
same,IC50,OPM-2,432 nM
Cc1nn(C)c(C)c1-c1cccc2c(CCCOc3cccc4ccccc34)c(C(=O)O)n(CCN3CCOCC3)c12,Ki,[14],1 nM
O=C(c1ccccc1O)c1[nH]c(Cl)c(Cl)c1-n1c(C(=O)c2ccccc2O)cc(Cl)c1Cl,IC50,Bcl-2-like protein 1 [15],> 100000 nM
same,IC50,[23],10100 nM
Cc1c(-c2c(-c3ccc(F)o3)sc3ncnc(O[C@H](Cc4ccccc4OCc4ccnn4CC(F)(F)F)C(=O)O)c23)ccc(OCCN2CCN(C)CC2)c1Cl,IC50,NCI-H929 [22],1 nM
CC[C@@H]1CC/C=C/[C@H](O)[C@@H]2CC[C@H]2CN2C[C@@]3(CCc4cc(Cl)ccc43)COc3ccc(cc32)C(=O)NS1(=O)=O,IC50,[3],0.05 nM
Cc1ccc(Oc2ccc(O)c(O)c2)c(-c2ccsc2S(=O)(=O)NCCNC(=O)Nc2cc(C(F)(F)F)cc(C(F)(F)F)c2)c1,Ki,[24],490 nM
same,IC50,HL-60 [25],3700 nM
CO[C@@H]1/C(F)=C/C[C@H](C)[C@@H](C)S(=O)(=O)NC(=O)c2ccc3c(c2)N(C[C@@H]2CCO[C@H]21)C[C@@]1(CCCc2cc(Cl)ccc21)CO3,solubility at 24 h,[17],11.2 µM
same,IC50,OPM-2,1120 nM
O=C(O)CCn1cc(-c2cccc(C(F)(F)F)c2)c2ccc(-c3ccccc3)cc21,Ki,[2],2380 nM
same,Ki,[3],410 nM
COCCOCc1nn(C)c2c1CSCc1cc(n(C)n1)CSc1cc(c3ccc(F)cc3c1)OCCCc1c(C(=O)O)n(CCN3CCOCC3)c3c-2c(Cl)ccc13,Ki,Bcl-2-like protein 1 [16],0.02 nM
same,solubility at 24 h,[17],550 µM
same,IC50,[7],> 30000 nM
Cc1c2c(nn1C)CSCc1cc(n(C)n1)CSc1cc(c3ccccc3c1)OCCCc1c(C(=O)O)n(C)c3c-2c(Cl)ccc13 [AZD-5991],EC50,MOLP-8,> 16000 nM
CO[C@H]1/C=C/C[C@H](C)[C@@H](C)S(=O)(=O)NC(=O)c2ccc3c(c2)N(C[C@@H]2CC[C@H]21)C[C@@]1(CCCc2cc(Cl)ccc21)CO3 [TAPOTOCLAX],IC50,MV4-11 [11],150 nM
COc1n[nH]cc1C(=O)NS1(=O)=NC(=O)c2ccc3c(c2)N(C[C@@H]2CCO[C@H]2[C@H](OC)/C(F)=C/C[C@H](C)C1)C[C@@]1(CCCc2cc(Cl)ccc21)CO3 (some centres not stated),solubility at 24 h,[17],520 µM
same,IC50,OPM-2,44 nM
CC(C)c1ccccc1Cc1cc(C(=O)Nc2ccc(S(=O)(=O)c3ccccc3C(C)(C)C)cc2)c(O)c(O)c1O,Ki,Bcl-2-like protein 1 [1],290 nM
Cc1cc2c(C(C)C)c(O)c(O)cc2c(O)c1-c1c(C)cc2c(C(C)C)c(O)c(O)cc2c1O [APOGOSSYPOL],IC50,[26],2800 nM
Cc1c(Cl)c2c(Cl)c(C)c1-c1c(-c3ccc(F)cc3)sc3ncnc(c13)O[C@@H](C(=O)O)Cc1cc(ccc1OCc1ccnc(-c3ccc(OC[C@H]4COCCO4)cc3)n1)OCC(CN1CCN(C)CC1)O2 (some centres not stated),IC50,NCI-H929 [22],40 nM
same,Ki,[14],0.01 nM
O=C(O)Cn1cc(-c2cc(O)c(C(=O)c3[nH]c(Cl)c(Cl)c3-n3c(C(=O)c4cc(Cl)c(-c5cn(CC(=O)O)nn5)cc4O)cc(Cl)c3Cl)cc2Cl)nn1,IC50,Bcl-2-like protein 1 [15],> 50000 nM
CC(=O)N1CCN(c2ccc(OCc3nn(C)c(C)c3-c3cccc4c(CCCOc5cccc6ccccc56)c(C(=O)O)n(Cc5cccnc5)c34)cc2)CC1,Ki,[14],1 nM
C#Cc1ccc(OCc2nn(C)c(C)c2-c2cccc3c(CCCOc4cccc5ccccc45)c(C(=O)O)n(C)c23)cc1C=O,IC50,[9],4200 nM
